# From ChEMBL document CHEMBL1201862, “PubChem BioAssay data set” (2004)
#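 Values below derive from 48-hour exposures of cells grown in 96-well plates, with endpoints linearly interpolated between the two concentrations bracketing the appropriate inhibition level. At the GI50, growth is halved.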 The source made the active and inactive calls. Rule as the data show it: active = GI50 up to about 1.1 µM and inactive = higher.
# How the values were obtained:
# Assay in all cases: NCI anticancer screen, dose series, 48 h
# SNB-19 = test system: SNB-19
# COLO 205 = test system: COLO 205
# U-251 = test system: U-251
# IGROV-1 = test system: IGROV-1
# RPMI-8226 = test system: RPMI-8226
# SNB-75 = test system: SNB-75
# M19-MEL = test system: M19-MEL
# OVCAR-8 = test system: OVCAR-8
# DMS-273 = test system: DMS-273
# NCI-H522 = test system: NCI-H522
# KM12 = test system: KM12
# UACC-257 = test system: UACC-257
# OVCAR-4 = test system: OVCAR-4
# HOP-92 = test system: HOP-92
# HL-60 = test system: HL-60
# KM-20L2 = test system: KM-20L2
# XF498 = test system: XF498
# EKVX = test system: EKVX
# SK-OV-3 = test system: SK-OV-3
# SK-MEL-28 = test system: SK-MEL-28
# DMS-114 = test system: DMS-114
# HOP-18 = test system: HOP-18
# UACC-62 = test system: UACC-62
# HOP-62 = test system: HOP-62
# SF-268 = test system: SF-268
# LXFL 529 = test system: LXFL 529
# HCT-15 = test system: HCT-15
# HCT-116 = test system: HCT-116
# SF-295 = test system: SF-295
# SK-MEL-5 = test system: SK-MEL-5
# RXF 393 = test system: RXF 393
# CAKI-1 = test system: CAKI-1
# ACHN = test system: ACHN
# A549 = test system: A549
# OVCAR-5 = test system: OVCAR-5
# CCRF-CEM = test system: CCRF-CEM
# SR = test system: SR
# A498 = test system: A498
# M14 = test system: M14
# TK-10 = test system: TK-10
# MOLT-4 = test system: MOLT-4
# RXF 631 = test system: RXF 631
# OVCAR-3 = test system: OVCAR-3
# NCI-H23 = test system: NCI-H23
# Malme-3M = test system: Malme-3M
# K562 = test system: K562
# UO-31 = test system: UO-31
# LOX IMVI = test system: LOX IMVI
# SW-620 = test system: SW-620
# SNB-78 = test system: SNB-78
# SK-MEL-2 = test system: SK-MEL-2
# SN12C = test system: SN12C
# 786-0 = test system: 786-0
# HCC 2998 = test system: HCC 2998
# NCI-H226 = test system: NCI-H226
# NCI-H460 = test system: NCI-H460
# DLD-1 = test system: DLD-1
# SF-539 = test system: SF-539
smiles,measurement,setting,value
CN(C)C(=O)/N=c1\ss/c(=N\C(=S)N(C)C)n1-c1ccccc1,GI50,SNB-19,35.6 µM (inactive)
same,GI50,COLO 205,35.3 µM (inactive)
same,GI50,U-251,27 µM (inactive)
same,GI50,IGROV-1,29.4 µM (inactive)
same,GI50,RPMI-8226,17 µM (inactive)
same,GI50,SNB-75,13.8 µM (inactive)
same,GI50,M19-MEL,31.9 µM (inactive)
same,GI50,OVCAR-8,20.9 µM (inactive)
same,GI50,DMS-273,0.125 µM (active)
same,GI50,NCI-H522,< 0.01 µM (active)
same,GI50,KM12,57.5 µM (inactive)
same,GI50,UACC-257,15.5 µM (inactive)
same,GI50,OVCAR-4,16.8 µM (inactive)
same,GI50,HOP-92,> 51.4 µM (inactive)
same,GI50,HL-60,8.34 µM (inactive)
same,GI50,KM-20L2,54 µM (inactive)
same,GI50,XF498,43.7 µM (inactive)
same,GI50,EKVX,> 63.5 µM (inactive)
same,GI50,SK-OV-3,> 100 µM (inactive)
same,GI50,SK-MEL-28,18.1 µM (inactive)
same,GI50,DMS-114,10.3 µM (inactive)
same,GI50,HOP-18,> 10 µM (inactive)
same,GI50,UACC-62,14.4 µM (inactive)
same,GI50,HOP-62,> 68.9 µM (inactive)
same,GI50,SF-268,25.6 µM (inactive)
same,GI50,LXFL 529,7.55 µM (inactive)
same,GI50,HCT-15,15 µM
same,GI50,HCT-116,13.5 µM (inactive)
same,GI50,SF-295,40.2 µM (inactive)
same,GI50,SK-MEL-5,29.6 µM (inactive)
same,GI50,RXF 393,38.4 µM (inactive)
same,GI50,CAKI-1,> 100 µM (inactive)
same,GI50,ACHN,23 µM (inactive)
same,GI50,A549,35.5 µM (inactive)
same,GI50,OVCAR-5,> 90.2 µM (inactive)
same,GI50,CCRF-CEM,0.184 µM (active)
same,GI50,SR,10 µM (inactive)
same,GI50,A498,56.8 µM (inactive)
same,GI50,M14,20 µM (inactive)
same,GI50,TK-10,31.4 µM (inactive)
same,GI50,MOLT-4,7.78 µM (inactive)
same,GI50,RXF 631,36.1 µM (inactive)
same,GI50,OVCAR-3,21.2 µM (inactive)
same,GI50,NCI-H23,18.7 µM (inactive)
same,GI50,Malme-3M,42.9 µM (inactive)
same,GI50,K562,0.294 µM (active)
same,GI50,UO-31,33 µM (inactive)
same,GI50,LOX IMVI,3.53 µM (inactive)
same,GI50,SW-620,28.3 µM (inactive)
same,GI50,SNB-78,65.8 µM (inactive)
same,GI50,SK-MEL-2,> 57 µM (inactive)
same,GI50,SN12C,45.8 µM (inactive)
same,GI50,786-0,19.6 µM (inactive)
same,GI50,HCC 2998,> 100 µM (inactive)
same,GI50,NCI-H226,27.2 µM (inactive)
same,GI50,NCI-H460,17 µM (inactive)
same,GI50,DLD-1,26.6 µM (inactive)
same,GI50,SF-539,35.4 µM (inactive)
